The text below walks through data of ChEMBL document CHEMBL6114977, “Identification and optimization of a small molecule inhibitor of the ovarian tumor protease of the Crimean-Congo hemorrhagic fever virus” (Bioorg Med Chem, 2025).

Data set [1] concerns the target T1, RNA-directed RNA polymerase L (Crimean-Congo hemorrhagic fever virus, UniProt Q6TQR6). Kind of data set: (§1) Inhibition of CCHF OTU (ovarian tumor) protease (1 to 169 residues) extracted from Escherichia coli BL21 (DE3) cells using ubiquitin rhodamine 110 as substrate incubated for 30 mins by fluorescence based SynergyH1 plate reader analysis.
The target in data set [2] is T1, RNA-directed RNA polymerase L. Kind of data set: Inhibition of CCHF OTU (ovarian tumor) protease (1 to 169 residues) extracted from Escherichia coli BL21 (DE3) cells assessed as inhibition constant by fluorescence based SynergyH1 plate reader analysis.
Data set [3] concerns the target Ubiquitin carboxyl-terminal hydrolase 7 (Homo sapiens) (UniProt Q93009). Kind of data set: Inhibition of human USP7 using ubiquitin rhodamine 110 as substrate at 50 uM incubated for 30 mins by fluorescence based SynergyH1 plate reader analysis.
Data set [4] addresses RNA-directed RNA polymerase L (Crimean-Congo hemorrhagic fever virus) (UniProt Q6TQR6). The data set is described as §1.
Data set [5] relates to Fc1cc(Nc2nc(-c3ccc(C(F)(F)F)cc3)cs2)ccc1-c1nnn[nH]1. Kind of data set: Competitive inhibition of CCHF OTU (ovarian tumor) protease (1 to 169 residues) extracted from Escherichia coli BL21 (DE3) cells using ubiquitin rhodamine 110 as substrate assessed as Km by Michaelis-Menten analysis (reference value: 31.6 nM). Particulars: Crimean-Congo hemorrhagic fever virus.
Data set [6] deals with T2, Ubiquitin carboxyl-terminal hydrolase isozyme L5 (Homo sapiens) (UniProt Q9Y5K5).
T2 sequence (whole entry): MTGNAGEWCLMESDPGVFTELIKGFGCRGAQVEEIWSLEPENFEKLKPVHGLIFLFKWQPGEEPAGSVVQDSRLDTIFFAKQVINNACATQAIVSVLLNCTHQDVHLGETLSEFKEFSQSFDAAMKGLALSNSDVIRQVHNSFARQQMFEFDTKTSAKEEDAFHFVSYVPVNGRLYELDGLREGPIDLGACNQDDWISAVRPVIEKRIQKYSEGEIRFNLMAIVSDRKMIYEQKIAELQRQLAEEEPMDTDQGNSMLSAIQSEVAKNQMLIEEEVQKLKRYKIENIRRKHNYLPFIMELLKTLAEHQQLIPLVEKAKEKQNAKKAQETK
Kind of data set: Inhibition of human UCHL5 using ubiquitin rhodamine 110 as substrate at 50 uM incubated for 30 mins by fluorescence based SynergyH1 plate reader analysis.

For data set [7], the target named is T3, OTU domain-containing protein 1 (Homo sapiens) (UniProt Q5VV17).
T3 sequence (whole entry): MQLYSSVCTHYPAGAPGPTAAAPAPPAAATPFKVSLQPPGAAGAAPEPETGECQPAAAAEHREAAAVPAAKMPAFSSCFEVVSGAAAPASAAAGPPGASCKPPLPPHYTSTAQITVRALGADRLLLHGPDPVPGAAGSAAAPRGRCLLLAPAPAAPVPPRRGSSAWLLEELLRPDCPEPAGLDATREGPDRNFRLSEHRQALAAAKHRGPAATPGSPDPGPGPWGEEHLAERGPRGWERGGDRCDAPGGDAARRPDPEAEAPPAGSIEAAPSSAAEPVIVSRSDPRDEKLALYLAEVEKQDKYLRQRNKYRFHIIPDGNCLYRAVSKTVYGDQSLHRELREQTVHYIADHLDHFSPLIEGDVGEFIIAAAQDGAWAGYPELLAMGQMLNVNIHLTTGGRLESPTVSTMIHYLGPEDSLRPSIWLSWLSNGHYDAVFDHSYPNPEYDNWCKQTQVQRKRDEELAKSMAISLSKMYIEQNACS
Kind of data set: Inhibition of human OTUD1 using ubiquitin rhodamine 110 as substrate at 50 uM incubated for 30 mins by fluorescence based SynergyH1 plate reader analysis.

The target in data set [8] is T4, OTU domain-containing protein 7B (Homo sapiens) (UniProt Q6GQQ9).
T4 sequence (whole entry): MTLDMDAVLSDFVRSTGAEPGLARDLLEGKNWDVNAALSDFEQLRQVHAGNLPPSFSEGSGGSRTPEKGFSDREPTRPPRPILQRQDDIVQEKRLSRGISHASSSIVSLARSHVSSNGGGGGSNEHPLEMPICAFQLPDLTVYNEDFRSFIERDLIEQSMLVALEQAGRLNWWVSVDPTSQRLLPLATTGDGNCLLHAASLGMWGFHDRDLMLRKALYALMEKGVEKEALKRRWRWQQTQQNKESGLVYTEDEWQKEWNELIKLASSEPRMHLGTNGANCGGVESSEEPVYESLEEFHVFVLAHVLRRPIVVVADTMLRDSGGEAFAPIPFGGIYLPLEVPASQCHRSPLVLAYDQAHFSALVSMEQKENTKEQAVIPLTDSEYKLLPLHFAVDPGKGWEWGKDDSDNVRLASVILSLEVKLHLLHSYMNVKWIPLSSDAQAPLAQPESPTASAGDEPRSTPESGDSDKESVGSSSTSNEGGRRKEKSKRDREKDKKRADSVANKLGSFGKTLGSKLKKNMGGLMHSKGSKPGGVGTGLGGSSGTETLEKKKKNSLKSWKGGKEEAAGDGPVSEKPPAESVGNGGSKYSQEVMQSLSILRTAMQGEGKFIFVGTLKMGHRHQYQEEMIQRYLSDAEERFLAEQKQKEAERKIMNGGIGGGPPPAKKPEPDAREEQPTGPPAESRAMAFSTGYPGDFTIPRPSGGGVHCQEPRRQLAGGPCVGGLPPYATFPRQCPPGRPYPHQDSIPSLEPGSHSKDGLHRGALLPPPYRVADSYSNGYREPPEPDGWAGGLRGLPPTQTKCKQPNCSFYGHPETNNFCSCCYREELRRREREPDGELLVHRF
Kind of data set: Inhibition of human cezanne using ubiquitin rhodamine 110 as substrate at 50 uM incubated for 30 mins by fluorescence based SynergyH1 plate reader analysis.

pIC50, pKi: −log10 of the molar value. Calls of active or inactive are those of the source. The calls are words filed in the database; no cut-off is given here.

T1 sequence (Q6TQR6 whole entry, the tested form may be a part): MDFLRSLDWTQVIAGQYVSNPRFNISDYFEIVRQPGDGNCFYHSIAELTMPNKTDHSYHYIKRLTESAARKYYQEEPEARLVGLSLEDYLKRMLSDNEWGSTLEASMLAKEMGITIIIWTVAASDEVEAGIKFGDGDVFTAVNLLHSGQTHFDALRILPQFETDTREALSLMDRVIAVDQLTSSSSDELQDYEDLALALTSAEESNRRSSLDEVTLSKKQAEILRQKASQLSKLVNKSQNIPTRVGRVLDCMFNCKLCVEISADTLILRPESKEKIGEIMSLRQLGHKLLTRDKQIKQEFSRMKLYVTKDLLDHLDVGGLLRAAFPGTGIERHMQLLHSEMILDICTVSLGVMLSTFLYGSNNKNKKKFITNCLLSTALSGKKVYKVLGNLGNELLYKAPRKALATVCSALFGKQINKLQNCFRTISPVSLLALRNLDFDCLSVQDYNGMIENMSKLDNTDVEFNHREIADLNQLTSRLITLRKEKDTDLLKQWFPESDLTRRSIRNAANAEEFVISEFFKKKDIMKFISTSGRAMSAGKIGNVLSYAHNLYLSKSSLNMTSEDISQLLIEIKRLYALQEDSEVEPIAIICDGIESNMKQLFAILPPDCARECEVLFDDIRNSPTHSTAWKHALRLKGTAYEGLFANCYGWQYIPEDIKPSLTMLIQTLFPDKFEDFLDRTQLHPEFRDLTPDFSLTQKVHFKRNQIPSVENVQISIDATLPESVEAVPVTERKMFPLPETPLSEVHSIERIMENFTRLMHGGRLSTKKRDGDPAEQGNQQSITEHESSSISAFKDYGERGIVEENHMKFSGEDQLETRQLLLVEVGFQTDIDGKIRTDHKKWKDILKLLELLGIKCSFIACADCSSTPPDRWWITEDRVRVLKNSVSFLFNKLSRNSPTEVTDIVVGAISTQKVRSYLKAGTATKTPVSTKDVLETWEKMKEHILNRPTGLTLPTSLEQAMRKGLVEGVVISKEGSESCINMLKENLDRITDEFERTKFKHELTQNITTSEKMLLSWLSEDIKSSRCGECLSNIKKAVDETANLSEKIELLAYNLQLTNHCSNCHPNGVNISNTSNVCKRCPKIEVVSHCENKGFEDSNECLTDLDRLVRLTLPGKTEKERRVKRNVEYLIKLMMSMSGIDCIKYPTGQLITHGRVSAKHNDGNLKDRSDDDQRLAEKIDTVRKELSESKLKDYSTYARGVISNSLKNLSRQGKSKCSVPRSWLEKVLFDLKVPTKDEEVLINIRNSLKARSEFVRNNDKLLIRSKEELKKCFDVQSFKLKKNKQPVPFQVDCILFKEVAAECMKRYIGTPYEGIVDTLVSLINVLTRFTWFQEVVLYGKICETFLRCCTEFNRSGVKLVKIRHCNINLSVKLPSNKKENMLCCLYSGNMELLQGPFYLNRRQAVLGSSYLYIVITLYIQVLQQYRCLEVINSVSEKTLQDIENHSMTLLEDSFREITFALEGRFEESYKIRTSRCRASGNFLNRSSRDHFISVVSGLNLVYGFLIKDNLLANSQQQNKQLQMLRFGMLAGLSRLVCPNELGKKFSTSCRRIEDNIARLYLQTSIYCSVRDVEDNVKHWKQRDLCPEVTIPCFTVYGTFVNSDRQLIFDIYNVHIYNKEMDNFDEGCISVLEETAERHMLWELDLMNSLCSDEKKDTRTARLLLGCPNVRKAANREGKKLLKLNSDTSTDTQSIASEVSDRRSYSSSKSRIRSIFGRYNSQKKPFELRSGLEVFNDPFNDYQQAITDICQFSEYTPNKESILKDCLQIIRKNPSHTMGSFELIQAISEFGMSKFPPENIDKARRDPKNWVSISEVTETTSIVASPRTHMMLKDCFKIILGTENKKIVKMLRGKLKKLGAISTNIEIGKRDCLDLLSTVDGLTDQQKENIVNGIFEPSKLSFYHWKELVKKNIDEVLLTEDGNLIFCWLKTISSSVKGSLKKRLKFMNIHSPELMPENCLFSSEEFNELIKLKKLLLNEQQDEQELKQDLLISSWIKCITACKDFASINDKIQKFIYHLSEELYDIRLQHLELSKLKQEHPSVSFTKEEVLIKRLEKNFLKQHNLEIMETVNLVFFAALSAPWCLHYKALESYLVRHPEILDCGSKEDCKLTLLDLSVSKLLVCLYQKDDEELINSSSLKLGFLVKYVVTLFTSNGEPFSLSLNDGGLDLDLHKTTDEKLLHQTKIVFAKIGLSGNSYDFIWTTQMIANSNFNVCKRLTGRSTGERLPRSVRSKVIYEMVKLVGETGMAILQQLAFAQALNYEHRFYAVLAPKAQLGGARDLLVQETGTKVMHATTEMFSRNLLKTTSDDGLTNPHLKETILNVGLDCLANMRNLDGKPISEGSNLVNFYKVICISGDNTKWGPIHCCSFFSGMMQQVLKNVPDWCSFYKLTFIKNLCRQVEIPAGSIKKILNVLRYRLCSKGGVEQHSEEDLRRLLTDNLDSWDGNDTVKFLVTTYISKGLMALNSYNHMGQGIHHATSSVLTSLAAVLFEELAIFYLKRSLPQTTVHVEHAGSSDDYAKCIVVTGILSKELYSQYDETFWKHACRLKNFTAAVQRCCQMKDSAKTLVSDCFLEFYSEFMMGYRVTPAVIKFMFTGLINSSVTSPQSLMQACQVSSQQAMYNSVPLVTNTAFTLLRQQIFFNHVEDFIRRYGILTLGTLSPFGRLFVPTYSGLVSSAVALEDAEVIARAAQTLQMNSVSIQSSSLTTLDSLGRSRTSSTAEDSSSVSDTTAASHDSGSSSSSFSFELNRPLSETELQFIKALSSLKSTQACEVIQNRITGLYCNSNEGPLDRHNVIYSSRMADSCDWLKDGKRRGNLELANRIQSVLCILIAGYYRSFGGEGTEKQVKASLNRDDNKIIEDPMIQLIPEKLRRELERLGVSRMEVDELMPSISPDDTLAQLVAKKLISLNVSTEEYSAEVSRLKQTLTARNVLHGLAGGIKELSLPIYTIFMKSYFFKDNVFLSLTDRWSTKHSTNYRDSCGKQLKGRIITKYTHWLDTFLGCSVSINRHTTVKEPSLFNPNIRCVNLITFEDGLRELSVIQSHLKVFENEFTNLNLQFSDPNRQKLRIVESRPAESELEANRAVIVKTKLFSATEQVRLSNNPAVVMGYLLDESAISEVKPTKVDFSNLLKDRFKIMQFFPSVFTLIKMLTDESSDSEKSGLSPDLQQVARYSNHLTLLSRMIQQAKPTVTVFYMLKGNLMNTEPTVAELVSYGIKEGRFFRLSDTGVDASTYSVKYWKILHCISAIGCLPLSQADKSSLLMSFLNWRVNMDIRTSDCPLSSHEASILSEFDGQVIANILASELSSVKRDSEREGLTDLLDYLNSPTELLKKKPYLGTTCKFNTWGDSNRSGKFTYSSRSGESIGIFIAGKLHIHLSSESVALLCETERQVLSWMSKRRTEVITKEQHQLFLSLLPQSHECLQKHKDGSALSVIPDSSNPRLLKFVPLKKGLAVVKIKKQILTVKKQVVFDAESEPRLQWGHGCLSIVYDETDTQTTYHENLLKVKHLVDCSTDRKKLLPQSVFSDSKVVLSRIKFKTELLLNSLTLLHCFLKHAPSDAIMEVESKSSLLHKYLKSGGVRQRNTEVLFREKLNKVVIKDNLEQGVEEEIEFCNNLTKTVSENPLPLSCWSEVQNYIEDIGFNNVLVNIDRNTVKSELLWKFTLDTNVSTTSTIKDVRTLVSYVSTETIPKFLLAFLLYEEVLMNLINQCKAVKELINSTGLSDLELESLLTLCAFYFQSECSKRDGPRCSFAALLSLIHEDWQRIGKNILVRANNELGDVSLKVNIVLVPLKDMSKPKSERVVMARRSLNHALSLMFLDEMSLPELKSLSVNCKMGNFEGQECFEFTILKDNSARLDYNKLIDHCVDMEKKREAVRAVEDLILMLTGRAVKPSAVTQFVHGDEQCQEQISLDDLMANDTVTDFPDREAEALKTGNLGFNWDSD
Sequence of Ubiquitin carboxyl-terminal hydrolase 7 (Homo sapiens) (Q93009 whole entry, looked up): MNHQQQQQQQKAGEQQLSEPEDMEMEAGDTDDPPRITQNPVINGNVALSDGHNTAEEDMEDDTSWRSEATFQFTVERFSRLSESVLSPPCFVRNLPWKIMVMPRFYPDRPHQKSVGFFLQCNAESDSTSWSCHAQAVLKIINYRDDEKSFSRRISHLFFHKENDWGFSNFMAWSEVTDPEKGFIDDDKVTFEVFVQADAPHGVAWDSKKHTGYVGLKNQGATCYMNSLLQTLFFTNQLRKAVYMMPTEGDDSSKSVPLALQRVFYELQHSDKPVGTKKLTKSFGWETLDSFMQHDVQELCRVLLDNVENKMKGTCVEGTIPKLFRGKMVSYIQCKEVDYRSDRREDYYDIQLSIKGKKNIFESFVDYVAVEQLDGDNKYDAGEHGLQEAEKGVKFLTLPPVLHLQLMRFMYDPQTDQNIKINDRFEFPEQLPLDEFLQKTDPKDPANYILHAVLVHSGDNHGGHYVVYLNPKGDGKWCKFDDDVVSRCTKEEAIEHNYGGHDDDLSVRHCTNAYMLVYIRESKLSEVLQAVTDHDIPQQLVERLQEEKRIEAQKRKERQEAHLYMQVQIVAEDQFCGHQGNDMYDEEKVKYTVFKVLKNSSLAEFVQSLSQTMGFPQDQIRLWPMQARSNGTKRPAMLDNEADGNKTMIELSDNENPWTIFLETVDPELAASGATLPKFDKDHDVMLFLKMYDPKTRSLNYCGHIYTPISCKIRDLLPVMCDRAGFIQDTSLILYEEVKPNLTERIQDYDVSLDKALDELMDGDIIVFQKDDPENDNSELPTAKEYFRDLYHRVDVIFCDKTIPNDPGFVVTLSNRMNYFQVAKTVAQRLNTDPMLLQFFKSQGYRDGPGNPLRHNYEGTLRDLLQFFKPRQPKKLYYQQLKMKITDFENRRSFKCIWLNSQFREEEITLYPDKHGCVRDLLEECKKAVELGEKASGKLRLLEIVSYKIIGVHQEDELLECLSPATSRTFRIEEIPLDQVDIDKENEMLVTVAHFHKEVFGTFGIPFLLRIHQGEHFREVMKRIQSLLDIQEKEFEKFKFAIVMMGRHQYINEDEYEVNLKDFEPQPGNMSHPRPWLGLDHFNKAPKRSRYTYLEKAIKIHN

The pIC50 is the negative decadic logarithm of the IC50, by convention in mol/L. For `O=C(O)Cc1ccc(Nc2nc(-c3ccc(C(F)(F)F)cc3)cs2)cc1`, in data set [1], the negative logarithm of the IC50 (pIC50) is under 4.00. On the same count and under the same terms, to `Cc1cc(NS(=O)(=O)c2ccc(Nc3nc(-c4ccc(C#N)cc4)cs3)cc2)no1` belongs under 4.00; to `Cc1cc(NS(=O)(=O)c2ccc(Nc3nc(-c4cccc(C(F)(F)F)c4)cs3)cc2)no1`, under 4.00.

Broadly, the pKi is the negative decadic logarithm of the Ki, by convention in mol/L. Consider `FC(F)(F)c1ccc(-c2csc(Nc3ccc(-c4nnn[nH]4)cn3)n2)cc1`, for which, in data set [1], the pIC50 is 4.74. In data set [2], the negative logarithm of the Ki (pKi) was 4.95. In addition, the inhibition entry in data set [3] was “Active”. In the case of `Cc1cc(Nc2nc(-c3ccc(C(F)(F)F)cc3)cs2)ccc1-c1nnn[nH]1`, the negative-log IC50 (pIC50) in data set [1] was 4.70. The pKi in data set [2] was 4.91. For the compound `Cc1cc(-c2nnn[nH]2)ccc1Nc1nc(-c2ccc(C(F)(F)F)cc2)cs1`, in data set [1], the negative logarithm of the IC50 (pIC50) is 4.71. The negative-log Ki (pKi) in data set [2] is 4.92. Further, the inhibition result in data set [3] is “Active”.

Take `Cc1cc(NS(=O)(=O)c2ccc(Nc3nc(-c4ccc(O)cc4O)cs3)cc2)no1`: the inhibition result in data set [4] is “Dose-dependent-effect”. Further, the negative logarithm of the IC50 (pIC50) in data set [1] was 4.37. For the same compound, in data set [2], the negative-log Ki (pKi) was 4.59.

For `N#Cc1ccc(Nc2nc(-c3ccc(C(F)(F)F)cc3)cs2)cc1`, in data set [1], the negative-log IC50 (pIC50) is under 4.00. As to `FC(F)(F)c1ccc(-c2coc(Nc3ccc(-c4nnn[nH]4)cc3)n2)cc1`, the negative logarithm of the IC50 (pIC50) in data set [1] was 4.74. In addition, in data set [2], the negative logarithm of the Ki (pKi) was 4.95. Further, the inhibition result in data set [3] is “Active”. A word on the Km: it is the substrate concentration at which the rate is half of its maximum. For “RNA-directed RNA polymerase L (Crimean-Congo hemorrhagic fever virus), Q6TQR6”, in data set [5], the Michaelis constant (Km) was 0.264 µM. Regarding `Cc1cc(NS(=O)(=O)c2ccc(Nc3nc(-c4ccc(Cl)cc4)cs3)cc2)no1`, in data set [1], the negative-log IC50 (pIC50) is 4.20. Moreover, in data set [2], the pKi was 4.41. In the case of `O=C(O)c1ccc(Nc2nc(-c3ccc(C(F)(F)F)cc3)cs2)cc1`, in data set [1], the pIC50 was under 4.30.

For `Cc1cc(NS(=O)(=O)c2ccc(Nc3nc(-c4ccc(Br)cc4)cs3)cc2)no1`, the pIC50 in data set [1] is 4.27. Also, the negative-log Ki (pKi) in data set [2] was 4.48. The like results for `Cc1cc(NS(=O)(=O)c2ccc(Nc3nc(-c4ccc(F)cc4)cs3)cc2)no1` were, in that order, 4.07 and 4.28. Take `FC(F)(F)c1ccc(-c2csc(Nc3ccc(-c4nnn[nH]4)c(C(F)(F)F)c3)n2)cc1`: the negative logarithm of the IC50 (pIC50) in data set [1] was 4.89. Moreover, the pKi in data set [2] was 5.11. The inhibition result in data set [3], in data set [6], in data set [7] and in data set [8] was “Active” throughout. `Cc1cc(NS(=O)(=O)c2ccc(Nc3nc(-c4ccccc4C(F)(F)F)cs3)cc2)no1`: the pIC50 in data set [1] is under 4.00.

As for `FC(F)(F)c1ccc(-c2ccnc(Nc3ccc(-c4nnn[nH]4)cc3)n2)cc1`, the pIC50 in data set [1] is 4.42. Besides, in data set [2], the pKi is 4.63. Besides, the inhibition entry in data set [3] is “Active”. Turning to `Cc1cc(NS(=O)(=O)c2ccc(Nc3nc(-c4cccc(F)c4)cs3)cc2)no1`, the negative logarithm of the IC50 (pIC50) in data set [1] was under 4.00. Regarding `O=S(=O)(O)c1ccc(Nc2nc(-c3ccc(C(F)(F)F)cc3)cs2)cc1`, the negative logarithm of the IC50 (pIC50) in data set [1] was 4.38. Also, the pKi in data set [2] was 4.59.

For the compound `FC(F)(F)c1ccc(-c2csc(Nc3ccc(-c4nnn[nH]4)nc3)n2)cc1`, in data set [1], the pIC50 was under 4.00. In the case of `Fc1cc(Nc2nc(-c3ccc(C(F)(F)F)cc3)cs2)ccc1-c1nnn[nH]1`, in data set [1], the negative logarithm of the IC50 (pIC50) was 4.97. The negative logarithm of the Ki (pKi) in data set [2] is 5.18. The inhibition result in data set [3], in data set [6], in data set [7] and in data set [8] was “Active” in each case. In the case of `Cc1cc(NS(=O)(=O)c2ccc(Nc3nc(-c4ccccc4Cl)cs3)cc2)no1`, in data set [1], the pIC50 was under 4.00. The same measure, in the same setting: to `Cc1cc(NS(=O)(=O)c2ccc(Nc3nc(-c4ccc(O)cc4)cs3)cc2)no1` belongs under 4.00; to `COc1ccccc1-c1csc(Nc2ccc(S(=O)(=O)Nc3cc(C)on3)cc2)n1`, under 4.00. Take `Cc1cc(NS(=O)(=O)c2ccc(Nc3nc(-c4ccc(C(F)(F)F)cc4)cs3)cc2)no1`: in data set [1], the pIC50 is 4.29. In data set [2], the negative logarithm of the Ki (pKi) was 4.51. For `FC(F)(F)c1ccc(-c2csc(Nc3ccc(-c4nnn[nH]4)c4c3CCC4)n2)cc1`, the pIC50 in data set [1] was 4.76. In data set [2], the pKi was 4.97. Also, in data set [3], the inhibition entry is “Active”.

Regarding `Cc1cc(NS(=O)(=O)c2ccc(Nc3nc(-c4ccccn4)cs3)cc2)no1`, the negative logarithm of the IC50 (pIC50) in data set [1] is under 4.00.

Turning to `Cc1cc(NS(=O)(=O)c2ccc(Nc3nc(-c4ccccc4)cs3)cc2)no1`, the negative logarithm of the IC50 (pIC50) in data set [1] was under 4.00. `NS(=O)(=O)c1ccc(Nc2nc(-c3ccc(C(F)(F)F)cc3)cs2)cc1`: in data set [1], the pIC50 is under 4.00. On to `COc1cc(-c2nnn[nH]2)ccc1Nc1nc(-c2ccc(C(F)(F)F)cc2)cs1`, for which, in data set [1], the pIC50 is 4.53. Further, the negative logarithm of the Ki (pKi) in data set [2] was 4.74. Further, in data set [3], the inhibition entry is “Active”. With `FC(F)(F)c1ccc(-c2csc(Nc3ccc(-c4nnn[nH]4)c(Cl)c3)n2)cc1`, the pIC50 in data set [1] was 4.92. Besides, the pKi in data set [2] is 5.14. The inhibition entry in data set [3], in data set [6], in data set [7] and in data set [8] was “Active” each time. `COc1ccc(-c2csc(Nc3ccc(S(=O)(=O)Nc4cc(C)on4)cc3)n2)cc1`: the pIC50 in data set [1] is under 4.00. For `Cc1cc(NS(=O)(=O)c2ccc(Nc3nc(-c4ccccc4F)cs3)cc2)no1`, the pIC50 in data set [1] is under 4.00. Same read-out and setting: to `FC(F)(F)c1ccc(-c2csc(Nc3ccc(-n4cnnn4)cc3)n2)cc1` belongs under 4.00.

Consider `FC(F)(F)c1ccc(-c2csc(Nc3ccc(-c4nnn[nH]4)cc3)n2)cc1`, for which the pIC50 in data set [1] was 4.78. Also, the negative-log Ki (pKi) in data set [2] was 4.99. Also, the inhibition entry in data set [3] was “Active”. Consider `COc1cccc(-c2csc(Nc3ccc(S(=O)(=O)Nc4cc(C)on4)cc3)n2)c1`, for which the negative-log IC50 (pIC50) in data set [1] is under 4.00. With `CN(c1ccc(-c2nnn[nH]2)cc1)c1nc(-c2ccc(C(F)(F)F)cc2)cs1`, in data set [1], the negative logarithm of the IC50 (pIC50) was 4.72. For the same compound, in data set [2], the pKi is 4.94. In the case of `Cc1cc(NS(=O)(=O)c2ccc(Nc3nc(-c4ccc(OC(F)(F)F)cc4)cs3)cc2)no1`, in data set [1], the pIC50 was under 4.00.

`Cc1cc(NS(=O)(=O)c2ccc(Nc3nc(-c4cccnc4)cs3)cc2)no1`: in data set [1], the pIC50 was under 4.00.
